In patent US10172355B2, “Safened herbicidal compositions including 4-amino-3-chloro-5-fluoro-6-(4-chloro-2-fluoro-3-methoxyphenyl)pyridine-2-carboxylic acid or a derivative thereof for use in rice” (Dow AgroSciences LLC, priority 2012, dated 2019):

Legend:
Type in all cases: in vivo
[1] = system: ORYSA=Orysa sativa, Rice; test: Postemergence foliar-applied herbicides and safeners in direct-seeded rice, visual injury; conditions: foliar; for Visual Injury (%) - 21 DAA ORYSA-‘Clearfield 171’ Obs / Visual Injury (%) - 21 DAA ORYSA-‘Neptune’ Obs / Visual Injury (%) - 21 DAA ORYSA-‘Wells’ Obs: Tables 1,2,7,8
Source text: (§1) Seeds or nutlets of the desired test plant species were planted in a soil matrix prepared by mixing a loam or sandy loam soil (e.g., 28.6 percent silt, 18.8 percent clay, and 52.6 percent sand, with a pH of about 5.8 and an organic matter content of about 1.8 percent) and calcareous grit in an 80 to 20 ratio. The soil matrix was contained in plastic pots with a surface area of 84.6 square centimeters (cm^2). When required to ensure good germination and healthy plants, a fungicide treatment and/or other chemical or physical treatment was applied. The plants were grown for 8-22 days in a greenhouse with an approximate 14 hr photoperiod which was maintained at about 29° C. during the day and 26° C. during the night. Nutrients (Peters Excel 15-5-15 5-Ca 2-Mg and iron chelate) were applied in the irrigation solution as needed and water was added on a regular basis. Supplemental lighting was provided with overhead metal halide 1000-Watt lamps as necessary. The plants were employed for testing when they reached the second or third true leaf stage.
(§2) Treatments consisted of the acid or esters of 4-amino-3-chloro-5-fluoro-6-(4-chloro-2-fluoro-3-methoxy-phenyl)pyridine-2-carboxylic acid (compound A) and various safener components alone and in combination. Forms of compound A were applied on an acid equivalent basis. Safener components were applied on an active ingredient or acid equivalent basis depending on the compound.
(§3) Treatment requirements were calculated based upon the rates being tested, the concentration of active ingredient or acid equivalent in the formulation, and a 12 mL application volume at a rate of 187 L/ha.
(§4) For treatments comprised of formulated compounds, measured amounts of compounds were placed individually in 25 mL glass vials and diluted in a volume of 1.25% (v/v) Agri-dex crop oil concentrated to obtain 12× stock solutions. […] Application solutions were prepared by adding an appropriate amount of each stock solution (e.g., 1 mL) and diluted to the appropriate final concentrations with the addition of 10 mL of an aqueous mixture of 1.25% (v/v) Agri-dex crop oil concentrate so that the final spray solutions contained 1.25% (v/v) Agri-dex crop oil concentrate.
(§5) For treatments comprised of technical compounds, weighed amounts were placed individually in 25 mL glass vials and dissolved in a volume of 97:3 v/v acetone/DMSO to obtain 12× stock solutions. […] Application solutions were prepared by adding an appropriate amount of each stock solution (e.g., 1 mL) and diluted to the appropriate final concentrations with the addition of 10 mL of an aqueous mixture of 1.5% (v/v) Agri-dex crop oil concentrate so that the final spray solutions contained 1.25% (v/v) Agri-dex crop oil concentrate. When technical materials were used, the concentrated stock solutions were added to the spray solutions so that the final acetone and DMSO concentrations of the application solutions were […], respectively.
(§6) For treatments comprised of formulated and technical compounds, weighed amounts of the technical materials were placed individually in 25 mL glass vials and dissolved in a volume of 97:3 v/v acetone/DMSO to obtain 12× stock solutions, and measured amounts of the formulated compounds were placed individually in 25 mL glass vials and diluted in a volume of 1.5% (v/v) Agri-dex crop oil concentrate or water to obtain 12× stock solutions. […] Application solutions were prepared by adding an appropriate amount of each stock solution (e.g., 1 mL) and diluted to the appropriate final concentrations with the addition of an appropriate amount of an aqueous mixture of 1.5% (v/v) Agri-dex crop oil concentrate so that the final spray solutions contained 1.25% (v/v) Agri-dex crop oil concentrate. When required, additional water and/or 97:3 v/v acetone/DMSO was added to individual application solutions so that the final acetone and DMSO concentrations of the application solutions being compared were 8.1% and 0.25%, respectively. […]

[2] = system: ORYSA=Orysa sativa, Rice; test: In-water applied herbicides and safeners in transplanted paddy rice, visual injury; conditions: in-water
Description: Weed seeds or nutlets of the desired test plant species were planted in puddled soil (mud) prepared by mixing a shredded, non-sterilized mineral soil (50.5 percent silt, 25.5 percent clay, and 24 percent sand, with a pH of about 7.6 and an organic matter content of about 2.9 percent) and water at a 1:1 volumetric ratio. The prepared mud was dispensed in 365 mL aliquots into 16-ounce (oz.) non-perforated plastic pots with a surface area of 86.59 square centimeters (cm^2) leaving a headspace of 3 centimeters (cm) in each pot. Rice seeds were planted in Sun Gro MetroMix® 306 planting mixture, which typically has a pH of 6.0 to 6.8 and an organic matter content of about 30 percent, in plastic plug trays. Seedlings at the second or third leaf stage of growth were transplanted into 860 mL of mud contained in 32-oz. non-perforated plastic pots with a surface area of 86.59 cm^2 4 days prior to herbicide application. The paddy was created by filling the headspace of the pots with 2.5 to 3 cm of water. When required to ensure good germination and healthy plants, a fungicide treatment and/or other chemical or physical treatment was applied. The plants were grown for 4-22 days in a greenhouse with an approximate 14 h photoperiod which was maintained at about 29′C during the day and about 26° C. during the night. Nutrients were added as Osmocote® (17:6:10, N:P:K+minor nutrients) at 2 g per 16-oz. pot and 4 g per 32-oz. pot. Water was added on a regular basis to maintain the paddy flood, and supplemental lighting was provided with overhead metal halide 1000-Watt lamps as necessary. The plants were employed for testing when they reached the second or third true leaf stage.
Treatments consisted of the acid or esters of 4-amino-3-chloro-5-fluoro-6-(4-chloro-2-fluoro-3-methoxy-phenyl)pyridine-2-carboxylic acid (compound A) and various safeners alone and in combination. Forms of compound A were applied on an acid equivalent basis. Safener components were applied on an active ingredient or acid equivalent basis depending on the compound.
Treatment requirements for each compound or herbicidal component were calculated based upon the rates being tested, the concentration of active ingredient or acid equivalent in the formulation, an application volume of 2 mL per component per pot, and an application area of 86.59 cm^2 per pot.
For formulated compounds, a measured amount was placed in an individual 100 or 200 mL glass vial and was dissolved in a volume of 1.25% (v/v) Agri-Dex® crop oil concentrate to obtain application solutions.
For technical grade compounds, a weighed amount can be placed in an individual 100 to 200 mL glass vial and dissolved in a volume of acetone to obtain concentrated stock solutions. […] The concentrated stock solutions obtained can be diluted with an equivalent volume of an aqueous mixture containing 2.5% (v/v) crop oil concentrate so that the final application solutions contain 1.25% (v/v) crop oil concentrate.
Applications were made by injecting with a pipetter appropriate amounts of the application solutions, individually and sequentially, into the aqueous layer of the paddy. Control plants were treated in the same manner with the solvent blank. Applications were made so that all treated plant material received the same concentrations of acetone and crop oil concentrate.
The treated plants and control plants were placed in a greenhouse as described above and water was added as needed to maintain a paddy flood. After approximately 3 weeks the condition of the test plants as compared with that of the untreated plants was determined visually and scored on a scale of 0 to 100 percent where 0 corresponds to no injury or growth inhibition and 100 corresponds to complete kill.
Colby's equation was used to determine the herbicidal effects expected from the mixtures (Colby, S. R. 1967. Calculation of the synergistic and antagonistic response of herbicide combinations. Weeds 15:20-22.). […]

[3] = system: ECHCG=Echinochloa crus-galli; test: Postemergence foliar-applied herbicides and safeners, visual injury of weed; conditions: Echinochloa crus-galli, foliar, 480 h, read-out: Visual Injury (%) - 20 DAA ECHCG Obs, foliar; Compound A form 140 g ae/ha alone; trial of Tables 5,9,11,13
Source text: as §1, §2, §3, §4, §5, §6

Compound	Visual Injury (%) - 21 DAA ORYSA-‘Clearfield 171’ Obs ([1]; safener 70 g ai/ha alone) [%]	Visual Injury (%) - 21 DAA ORYSA-‘Neptune’ Obs ([1]; safener 70 g ai/ha alone) [%]	Visual Injury (%) - 21 DAA ORYSA-‘Wells’ Obs ([1]; safener 70 g ai/ha alone) [%]	Visual Injury (%) - 21 DAA ORYSA-‘Clearfield 171’ Obs ([1]; safener 140 g ai/ha alone) [%]	Visual Injury (%) - 21 DAA ORYSA-‘Neptune’ Obs ([1]; safener 140 g ai/ha alone) [%]	Visual Injury (%) - 21 DAA ORYSA-‘Wells’ Obs ([1]; safener 140 g ai/ha alone) [%]	Visual Injury (%) - 21 DAA ORYSA-‘Neptune’ Obs ([1]; safener 280 g ai/ha alone) [%]	Visual Injury (%) - 21 DAA ORYSA-‘Wells’ Obs ([1]; safener 280 g ai/ha alone) [%]	Visual Injury (%) - 21 DAA ORYSA - ‘M202’ Obs ([2]; safener 140 g ai/ha alone) [%]	Visual Injury (%) - 21 DAA ORYSA - ‘M202’ Obs ([2]; safener 280 g ai/ha alone) [%]	Visual Injury (%) - 21 DAA ORYSA - ‘M202’ Obs ([2]; safener 560 g ai/ha alone) [%]	Visual crop injury (%) at 140 g/ha ([1]; Oryza sativa, 480 h, read-out: Visual Injury (%) - 20 DAA ORYSA-‘Clearfield 171’ Obs, foliar, Compound A form 140 g ae/ha alone, trial of Tables 5,9,11,13) [%]	pest or weed control at 140 g/ha [3] [%]	Visual Injury (%) - 21 DAA ORYSA - ‘M202’ Obs ([2]; Compound A form 140 g ae/ha alone) [%]
CCOC(=O)C1=NOC(c2ccccc2)(c2ccccc2)C1 [Isoxadifen-ethyl, ethyl 4,5-dihydro-5,5-diphenyl-3-isoxazole-carboxylate]	0	0	0	0	0	0	0	0	0	0	0	–	–	–
COC(=O)c1nc(-c2ccc(Cl)c(OC)c2F)c(F)c(N)c1Cl [Methyl]	–	–	–	–	–	–	–	–	–	–	–	12	98	17.5
